This is an account of results in PubChem BioAssay (NCI).

What all share (assay): DTP human tumour cell line panel, 48 h
Test [1] deals with SN12C renal.
The test system of test [2] is COLO 205 colon.
In test [3] the test system is OVCAR-8 ovarian.
Test [4] deals with RXF 393 renal.
The subject of test [5] is SW-620 colon.
For test [6], the system named is M14 melanoma.
In test [7] the test system is LOX IMVI melanoma.
For test [8], the system named is SF-295 CNS.
The test system of test [9] is A549 NSCLC.
Test [10] has as its system HL-60(TB) leukemia.
In test [11] the test system is EKVX NSCLC.
Test [12] concerns HOP-62 NSCLC.
In test [13] the test system is NCI-H460 lung.
The test system of test [14] is OVCAR-5 ovarian.
Test [15] deals with OVCAR-3 ovarian.
Test [16] deals with SNB-78 CNS.
Test [17] relates to NCI-H226 lung.
Test [18] has as its system DU-145 prostate.
The test system of test [19] is MCF7 breast.
The subject of test [20] is HS 578T breast.

Structures are written as SMILES.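 Compound exposure: 48 hours, 5 concentrations, 96-well plates. The concentration for full growth arrest is given as TGI.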 Bounds are passed on as bounds.

As usually defined, the TGI is the concentration giving total growth inhibition. The low end stands for more potent growth arrest, the high end for less potent growth arrest. Take `COC(=O)C(CCC1(C)OCCO1)C(C)=O` (stereo not given): the TGI in test [1], in test [2], in test [3], in test [4], in test [5] and in [6] was > 100 µM throughout. Besides, the TGI in test [7], in test [8], in [9], in test [10], in test [11] and in test [12] was > 100 µM throughout. Besides, the TGI in [13], in test [14], in test [15], in test [16] and in test [17] was > 100 µM throughout.
Turning to `N#Cc1ccc(Nc2cnc3cc(N)ccc3n2)cc1`, the TGI in test [1], in test [2], in [3], in test [4], in test [5] and in test [6] was > 100 µM each time. Moreover, the total growth inhibition concentration (TGI) in test [7], in test [8], in test [9], in [10], in [11] and in test [12] was > 100 µM each time. Besides, the TGI in test [13], in test [14], in test [15], in [16] and in test [17] was > 100 µM in each case.
Regarding `COC1=C(C)C(=O)C2C(C1=O)C(c1ccc(OC)c(OC)c1)[C@H]2C` (stereo not given in full), the TGI in [2], in test [3], in [4], in [5], in test [6] and in [7] was > 100 µM each time. The TGI in test [8], in [9], in test [10], in test [11], in test [12] and in [13] was > 100 µM each time. The TGI in test [14], in test [15], in test [16] and in test [17] was > 100 µM in each case.
With `Cn1c(=O)c2c(ncn2CCCCn2ccnc2[N+](=O)[O-])n(C)c1=O`, the TGI in test [1], in test [2], in test [3], in test [4], in [5] and in test [6] was > 100 µM each time. The TGI in test [7], in test [8], in test [9], in test [10], in [11] and in test [12] was > 100 µM in each case. The total growth inhibition concentration (TGI) in test [13], in test [14], in test [15], in test [16] and in test [17] was > 100 µM each time.
With `Cc1ccc(/C=C/C(=O)c2sc(C(N)=S)nc2C)cc1`, the TGI in [1], in test [2], in test [3], in test [4], in test [5] and in test [7] was > 100 µM each time. Moreover, the TGI in test [8], in test [9], in test [10], in test [11], in test [12] and in test [13] was > 100 µM in each case. Besides, the TGI in test [14], in test [15], in test [16] and in test [17] was > 100 µM throughout.
As for `COc1ccc(C2Cc3cc(OC)c(OC)c(OC)c3C2=O)cc1` (stereo not given), the TGI in [1], in test [2], in test [3], in test [5], in test [6] and in [7] was > 100 µM throughout. Besides, the concentration for total growth inhibition (TGI) in test [8], in test [9], in test [11], in test [12], in [13] and in test [14] was > 100 µM in each case. For the same compound, the TGI in test [15], in test [16] and in [17] was > 100 µM in each case.
On to `CC(C)Cc1ccc(C(C)/C=C2\CCC(CN3CCOCC3)C2=O)cc1` (stereo not given), for which the TGI in [1] came to 21.5 µM; in test [2], 48.4 µM; in [3] it was 12.3 µM; in test [4] it was 22 µM; in test [5], 10.8 µM; in test [6], 15.9 µM. The TGI came to 7.73 µM in test [7]; 29.3 µM in test [8]; 34.8 µM in test [9]; 20.7 µM in test [10]; 32.8 µM in test [11]; 19.3 µM in [12]. The TGI in [13] is 33.8 µM; in test [18], 26.6 µM; in test [14], 35.9 µM; in test [15] it was 9.95 µM; in [16], > 72.8 µM; in test [19], 19.9 µM. In addition, the TGI was > 100 µM in [20] and 35.5 µM in [17].
Regarding `O=S1(=O)COc2ccccc2-c2ncncc21`, the TGI in test [1], in [2], in [3], in test [4], in test [5] and in test [6] was > 100 µM in each case. The TGI in test [7], in test [8], in test [9], in test [10], in test [11] and in test [12] was > 100 µM throughout. Besides, the TGI in [13], in test [14], in test [15], in [16] and in [17] was > 100 µM in each case.
For `COc1ccc(NC(=O)CSc2nnc(Cc3ccccc3)o2)cc1`, the TGI in test [1], in test [2], in test [3], in test [4], in test [5] and in test [6] was > 100 µM throughout. In addition, the TGI in test [7], in test [8], in test [9], in [12], in test [13] and in test [14] was > 100 µM throughout. Further, the TGI in test [15], in test [16] and in test [17] was > 100 µM each time.
On to `CC(=O)N(/N=C\c1ccc([N+](=O)[O-])cc1)c1ccccc1`, for which the TGI in test [1], in test [2], in test [3], in [5], in test [6] and in [7] was > 100 µM throughout. The TGI in [8], in [9], in [11], in test [12], in test [13] and in test [14] was > 100 µM in each case. Moreover, the TGI in test [15], in [16] and in [17] was > 100 µM throughout.
Take `Cc1cc2c(cc1Cl)SC(NN(C)C)=NS2(=O)=O`: the TGI in test [1], in test [2], in test [3], in test [4], in test [5] and in test [6] was > 10 µM throughout. In addition, the TGI in test [7], in test [8], in test [9], in [10], in [11] and in test [12] was > 10 µM each time. In addition, the TGI in test [13], in test [18], in test [14], in test [15], in [19] and in test [20] was > 10 µM in each case. Moreover, the TGI in [17] was > 10 µM.
On to `CCOC(=O)c1ccc(-c2cccs2)n1C`, for which the TGI in test [1], in test [2], in [3], in [4], in test [5] and in test [6] was > 100 µM each time. Moreover, the TGI in test [7], in test [8], in test [9], in test [10], in test [11] and in test [12] was > 100 µM in each case. Moreover, the TGI in test [13], in test [18], in test [14], in test [15], in test [19] and in [20] was > 100 µM throughout. For the same compound, the TGI in test [17] was > 100 µM.
In the case of `Cc1cc(=O)cc2sc3cc(Cl)ccc3nc1-2`, the TGI in test [1] turned out to be 50.3 µM; in test [2], 53.7 µM; in test [3] it was 44.6 µM; in [4], 30 µM; in test [5], 29.8 µM; in [6] it was 33.3 µM. Moreover, the TGI is 24.4 µM in [7]; 26.6 µM in [8]; 17.8 µM in test [9]; 26.2 µM in test [10]; 25 µM in test [11]; 29.7 µM in test [12]. Also, the TGI in test [13] was 35.4 µM; in [14] it was 43.7 µM; in [15] it was 31.9 µM; in test [16], > 100 µM; in test [17], 65.6 µM.
Take `O=C1CCCCC1C1(O)C(=O)Nc2cc(F)ccc21` (stereo not given): the TGI in test [1], in test [2], in test [3], in [4], in test [5] and in [6] was > 100 µM throughout. Also, the TGI in test [7], in test [8], in [9], in [10], in test [11] and in test [12] was > 100 µM in each case. The TGI in test [13], in test [14], in [16] and in [17] was > 100 µM throughout.
Take `O=C(O)c1cnccc1-c1cc(=O)[nH]n1-c1ccccc1`: the total growth inhibition concentration (TGI) in test [1] is > 100 µM; in test [2], 34.3 µM; in test [3] it was > 100 µM; in test [4], > 100 µM; in test [5], > 100 µM; in test [6], > 100 µM. Further, the TGI in [7] is > 100 µM; in test [8], > 63.8 µM; in test [9], > 100 µM; in test [10] it was > 87 µM; in test [11], > 100 µM; in [12], > 100 µM. Also, the TGI in test [13], in test [18], in test [14], in test [15], in [19] and in test [20] was > 100 µM each time. The TGI in test [17] is > 100 µM.
